Data as given in ChEMBL document CHEMBL1201862, “PubChem BioAssay data set” (2004).
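48-hour exposure; five concentrations; linearly interpolated endpoints. Here, GI50 denotes the concentration required for 50% inhibition of growth.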 Active and inactive are the calls of the source. Cut-off read from the data, not from the text of the source: active = GI50 up to about 1.1 µM and inactive = higher.

What was measured:
Assay in all cases: growth of human tumour cells (NCI), 48 h
[1] = tested on: 786-0
[2] = tested on: A498
[3] = tested on: A549
[4] = tested on: ACHN
[5] = tested on: CAKI-1
[6] = tested on: CCRF-CEM
[7] = tested on: COLO 205
[8] = tested on: DLD-1
[9] = tested on: EKVX
[10] = tested on: HCC 2998
[11] = tested on: HCT-116
[12] = tested on: HCT-15
[13] = tested on: HL-60
[14] = tested on: HOP-92
[15] = tested on: HT-29
[16] = tested on: IGROV-1
[17] = tested on: K562
[18] = tested on: KM-20L2
[19] = tested on: KM12
[20] = tested on: LOX IMVI
[21] = tested on: LXFL 529
[22] = tested on: M14
[23] = tested on: M19-MEL
[24] = tested on: MOLT-4
[25] = tested on: Malme-3M
[26] = tested on: NCI-H23
[27] = tested on: NCI-H460
[28] = tested on: NCI-H522
[29] = tested on: OVCAR-3
[30] = tested on: OVCAR-4
[31] = tested on: OVCAR-5
[32] = tested on: OVCAR-8
[33] = tested on: RPMI-8226
[34] = tested on: RXF 393
[35] = tested on: SF-268
[36] = tested on: SF-295
[37] = tested on: SF-539
[38] = tested on: SK-MEL-28
[39] = tested on: SK-MEL-2
[40] = tested on: SK-MEL-5
[41] = tested on: SK-OV-3
[42] = tested on: SN12C
[43] = tested on: SNB-19
[44] = tested on: SNB-78
[45] = tested on: SW-620
[46] = tested on: TK-10
[47] = tested on: U-251
[48] = tested on: UACC-257
[49] = tested on: UACC-62
[50] = tested on: UO-31
[51] = tested on: XF498
[52] = tested on: DMS-114
[53] = tested on: DMS-273
[54] = tested on: HOP-62
[55] = tested on: NCI-H226
[56] = tested on: SNB-75
[57] = tested on: SR

In the case of `COc1cc(/C=C2/C(=O)N(C(=O)c3ccc(Cl)cc3)N=C2C)cc(OC)c1OC`, the GI50 [1] is reported as > 100 µM (inactive), the GI50 [2] is reported as > 100 µM (inactive) and the GI50 [3] is reported as > 100 µM (inactive). For the same compound, the GI50 [4] was > 100 µM (inactive), the GI50 [5] was > 100 µM (inactive) and the GI50 [6] was > 100 µM (inactive). For the same compound, the GI50 [7] was > 100 µM (inactive), the GI50 [8] was > 100 µM (inactive) and the GI50 [9] was > 100 µM (inactive). For the same compound, the GI50 [10] was > 100 µM (inactive), the GI50 [11] was > 100 µM (inactive) and the GI50 [12] was > 100 µM. The GI50 [13] was > 100 µM (inactive), the GI50 [14] was > 100 µM (inactive) and the GI50 [15] was > 100 µM (inactive). For the same compound, the GI50 [16] was > 100 µM (inactive), the GI50 [17] was > 100 µM (inactive) and the GI50 [18] was > 100 µM (inactive). The GI50 [19] was > 100 µM (inactive), the GI50 [20] was > 100 µM (inactive) and the GI50 [21] was > 100 µM (inactive). For the same compound, the GI50 [22] was > 100 µM (inactive), the GI50 [23] was > 100 µM (inactive) and the GI50 [24] was > 100 µM (inactive). For the same compound, the GI50 [25] was > 100 µM (inactive), the GI50 [26] was > 100 µM (inactive) and the GI50 [27] was > 100 µM (inactive). For the same compound, the GI50 [28] was > 100 µM (inactive), the GI50 [29] was > 100 µM (inactive) and the GI50 [30] was > 100 µM (inactive). For the same compound, the GI50 [31] was > 100 µM (inactive), the GI50 [32] was > 100 µM (inactive) and the GI50 [33] was > 100 µM (inactive). The GI50 [34] was > 100 µM (inactive), the GI50 [35] was > 100 µM (inactive) and the GI50 [36] was > 100 µM (inactive). For the same compound, the GI50 [37] was > 100 µM (inactive), the GI50 [38] was > 100 µM (inactive) and the GI50 [39] was > 100 µM (inactive). The GI50 [40] was > 100 µM (inactive), the GI50 [41] was > 100 µM (inactive) and the GI50 [42] was > 100 µM (inactive). For the same compound, the GI50 [43] was > 100 µM (inactive), the GI50 [44] was > 100 µM (inactive) and the GI50 [45] was > 100 µM (inactive). For the same compound, the GI50 [46] was > 100 µM (inactive), the GI50 [47] was > 100 µM (inactive) and the GI50 [48] was > 100 µM (inactive). The GI50 [49] was > 100 µM (inactive), the GI50 [50] was > 100 µM (inactive) and the GI50 [51] was > 100 µM (inactive).
With `N#C/C(=C/c1ccc[nH]1)P(=O)(O)O` the GI50 [1] was > 100 µM (inactive), the GI50 [3] was > 100 µM (inactive) and the GI50 [4] was > 100 µM (inactive). The GI50 [5] was > 100 µM (inactive), the GI50 [6] was > 100 µM (inactive) and the GI50 [7] was > 100 µM (inactive). The GI50 [8] was > 100 µM (inactive), the GI50 [52] was > 100 µM (inactive) and the GI50 [53] was > 100 µM (inactive). For the same compound, the GI50 [9] was > 100 µM (inactive), the GI50 [10] was > 100 µM (inactive) and the GI50 [11] was > 100 µM (inactive). The GI50 [12] was > 100 µM, the GI50 [13] was > 100 µM (inactive) and the GI50 [54] was > 100 µM (inactive). The GI50 [14] was > 100 µM (inactive), the GI50 [15] was > 100 µM (inactive) and the GI50 [17] was > 100 µM (inactive). For the same compound, the GI50 [18] was > 100 µM (inactive), the GI50 [19] was > 100 µM (inactive) and the GI50 [20] was > 100 µM (inactive). For the same compound, the GI50 [21] was > 100 µM (inactive), the GI50 [22] was > 100 µM (inactive) and the GI50 [23] was > 100 µM (inactive). For the same compound, the GI50 [24] was > 100 µM (inactive), the GI50 [25] was > 100 µM (inactive) and the GI50 [55] was > 100 µM (inactive). For the same compound, the GI50 [26] was > 100 µM (inactive), the GI50 [27] was > 100 µM (inactive) and the GI50 [28] was > 100 µM (inactive). The GI50 [29] was > 100 µM (inactive), the GI50 [30] was > 100 µM (inactive) and the GI50 [31] was > 100 µM (inactive). For the same compound, the GI50 [32] was > 100 µM (inactive), the GI50 [33] was > 100 µM (inactive) and the GI50 [34] was > 100 µM (inactive). For the same compound, the GI50 [35] was > 100 µM (inactive), the GI50 [36] was > 100 µM (inactive) and the GI50 [37] was > 100 µM (inactive). For the same compound, the GI50 [38] was > 100 µM (inactive), the GI50 [39] was > 100 µM (inactive) and the GI50 [40] was > 100 µM (inactive). For the same compound, the GI50 [41] was > 100 µM (inactive), the GI50 [42] was > 100 µM (inactive) and the GI50 [43] was > 100 µM (inactive). For the same compound, the GI50 [56] was 80.4 µM (inactive), the GI50 [44] was > 100 µM (inactive) and the GI50 [57] was > 100 µM (inactive). The GI50 [45] was > 100 µM (inactive), the GI50 [46] was > 100 µM (inactive) and the GI50 [47] was > 100 µM (inactive). For the same compound, the GI50 [48] was > 100 µM (inactive), the GI50 [49] was > 100 µM (inactive) and the GI50 [50] was > 100 µM (inactive). For the same compound, the GI50 [51] was > 100 µM (inactive).
With `CC1SC2=NC3=C(c4ccccc4C3=O)C(c3ccc(F)cc3)N2C1=O` (centres undefined) the GI50 [1] was > 100 µM (inactive), the GI50 [2] was > 100 µM (inactive) and the GI50 [3] was > 100 µM (inactive). For the same compound, the GI50 [4] was > 100 µM (inactive), the GI50 [5] was > 100 µM (inactive) and the GI50 [6] was > 100 µM (inactive). The GI50 [7] was > 100 µM (inactive), the GI50 [8] was > 100 µM (inactive) and the GI50 [52] was 95.7 µM (inactive). The GI50 [53] was > 100 µM (inactive), the GI50 [9] was > 100 µM (inactive) and the GI50 [10] was > 100 µM (inactive). The GI50 [11] was > 100 µM (inactive), the GI50 [12] was > 100 µM and the GI50 [13] was > 100 µM (inactive). For the same compound, the GI50 [54] was > 100 µM (inactive), the GI50 [14] was 50.7 µM (inactive) and the GI50 [15] was > 100 µM (inactive). For the same compound, the GI50 [16] was > 100 µM (inactive), the GI50 [17] was > 100 µM (inactive) and the GI50 [18] was > 100 µM (inactive). For the same compound, the GI50 [19] was > 100 µM (inactive), the GI50 [21] was 86.3 µM (inactive) and the GI50 [22] was > 100 µM (inactive). The GI50 [23] was > 100 µM (inactive), the GI50 [24] was > 100 µM (inactive) and the GI50 [25] was > 100 µM (inactive). For the same compound, the GI50 [55] was 38.5 µM (inactive), the GI50 [26] was > 100 µM (inactive) and the GI50 [27] was > 100 µM (inactive). The GI50 [28] was 26.5 µM (inactive), the GI50 [29] was > 100 µM (inactive) and the GI50 [30] was 42.5 µM (inactive). For the same compound, the GI50 [31] was > 100 µM (inactive), the GI50 [32] was > 100 µM (inactive) and the GI50 [33] was 65.3 µM (inactive). The GI50 [35] was > 100 µM (inactive), the GI50 [36] was > 100 µM (inactive) and the GI50 [37] was > 100 µM (inactive). For the same compound, the GI50 [38] was > 100 µM (inactive), the GI50 [39] was > 100 µM (inactive) and the GI50 [40] was > 100 µM (inactive). For the same compound, the GI50 [41] was > 100 µM (inactive), the GI50 [42] was 63.7 µM (inactive) and the GI50 [43] was > 100 µM (inactive). The GI50 [56] was 35.6 µM (inactive), the GI50 [45] was > 100 µM (inactive) and the GI50 [46] was > 100 µM (inactive). For the same compound, the GI50 [47] was > 100 µM (inactive), the GI50 [48] was > 100 µM (inactive) and the GI50 [49] was 64.1 µM (inactive). The GI50 [50] was 38.9 µM (inactive) and the GI50 [51] was 89.7 µM (inactive).
